Assay results as given in PMC9866191, “Novel 9-Benzylaminoacridine Derivatives as Dual Inhibitors of Phosphodiesterase 5 and Topoisomerase II for the Treatment of Colon Cancer” (Molecules, 2023).

Columns and labels:
CCD-966SK = assay: MTT cell proliferation assay, CCD-966SK; conditions: CCD966SK skin fibroblast, 72 h MTT
HCT-116 = assay: MTT cell proliferation assay, HCT-116; conditions: for % Inhibition at 10 µM: 72 h MTT, means ± SD; for IC50: read-out: IC50 μM, 72 h MTT, means ± SD, three experiments
SF-268 = assay: NCI-60 one-dose screen; assay type: cell-based; conditions: Homo sapiens; SF-268, CNS Cancer panel; single dose 10^−5 M; read-out: Growth inhibition %
PDE5A = biological target: T1, PDE5A (Homo sapiens, UniProt O76074); assay: Phosphodiesterase 5 HTRF cGMP assay; assay type: biochemical; conditions: for IC50: means ± S.D. (n = 4), read-out: PDE5 IC50; for inhibition at 10 µM: read-out: PDE5 % Inhibition at 10 μM
T1 construct: purchased BPS Bioscience, San Diego, CA, USA
Method: All the synthesized acridine derivatives were tested for their in vitro ability to inhibit PDE5A at a screening dose of 10 µM.
The enzyme activities of phosphodiesterase 5 (PDE5) were measured using an HTRF cGMP assay kit (Cisbio, Codolet, France). […] Afterward, the HTRF reagent (cGMP-d2 and anti-cGMP-cryptate) was added for 1 h at 25 °C, and PDE activity was assayed on an HTRF reader (Tecan Infinite F200 Pro).

MDA-MB-435 = assay: NCI-60 one-dose screen; assay type: cell-based; conditions: Homo sapiens; MDA-MB-435, Melanoma panel; single dose 10^−5 M; read-out: Growth inhibition %
BT-549 = assay: NCI-60 one-dose screen; assay type: cell-based; conditions: Homo sapiens; BT-549, Breast Cancer panel; single dose 10^−5 M; read-out: Growth inhibition %
EKVX = assay: NCI-60 one-dose screen; assay type: cell-based; conditions: Homo sapiens, Non-small cell lung panel, single dose 10^−5 M, read-out: Growth inhibition %
OVCAR-8 = assay: NCI-60 one-dose screen; assay type: cell-based; conditions: Homo sapiens; OVCAR-8, Ovarian Cancer panel; single dose 10^−5 M; read-out: Growth inhibition %
OVCAR-3 = assay: NCI-60 one-dose screen; assay type: cell-based; conditions: Homo sapiens; OVCAR-3, Ovarian Cancer panel; single dose 10^−5 M; read-out: Growth inhibition %
SK-MEL-28 = assay: NCI-60 one-dose screen; assay type: cell-based; conditions: Homo sapiens; SK-MEL-28, Melanoma panel; single dose 10^−5 M; read-out: Growth inhibition %
MOLT-4 = assay: NCI-60 one-dose screen; assay type: cell-based; conditions: Homo sapiens; MOLT-4, Leukemia panel; single dose 10^−5 M; read-out: Growth inhibition %
UO-31 = assay: NCI-60 one-dose screen; assay type: cell-based; conditions: Homo sapiens; UO-31, Renal Cancer panel; single dose 10^−5 M; read-out: Growth inhibition %
SR = assay: NCI-60 one-dose screen; assay type: cell-based; conditions: Homo sapiens, Leukemia panel, single dose 10^−5 M, read-out: Growth inhibition %
K-562 = assay: NCI-60 one-dose screen; assay type: cell-based; conditions: Homo sapiens, K562; K-562, Leukemia panel; single dose 10^−5 M; read-out: Growth inhibition %
MDA-MB-231/ATCC = assay: NCI-60 one-dose screen; assay type: cell-based; conditions: Homo sapiens, Breast Cancer panel, single dose 10^−5 M, read-out: Growth inhibition %
HL-60(TB) = assay: NCI-60 one-dose screen; assay type: cell-based; conditions: Homo sapiens, Leukemia panel, single dose 10^−5 M, read-out: Growth inhibition %
CAKI-1 = assay: NCI-60 one-dose screen; assay type: cell-based; conditions: Homo sapiens; CAKI-1, Renal Cancer panel; single dose 10^−5 M; read-out: Growth inhibition %
HS 578T = assay: NCI-60 one-dose screen; assay type: cell-based; conditions: Homo sapiens, Breast Cancer panel, single dose 10^−5 M, read-out: Growth inhibition %
DU-145 = assay: NCI-60 one-dose screen; assay type: cell-based; conditions: Homo sapiens; DU-145, Prostate Cancer panel; single dose 10^−5 M; read-out: Growth inhibition %
ACHN = assay: NCI-60 one-dose screen; assay type: cell-based; conditions: Homo sapiens, Renal Cancer panel, single dose 10^−5 M, read-out: Growth inhibition %
COLO 205 = assay: NCI-60 one-dose screen; assay type: cell-based; conditions: Homo sapiens; COLO 205, Colon Cancer panel; single dose 10^−5 M; read-out: Growth inhibition %
HT29 = assay: NCI-60 one-dose screen; assay type: cell-based; conditions: Homo sapiens, HT-29; HT29, Colon Cancer panel; single dose 10^−5 M; read-out: Growth inhibition %
NCI-H226 = assay: NCI-60 one-dose screen; assay type: cell-based; conditions: Homo sapiens; NCI-H226, Non-small cell lung panel; single dose 10^−5 M; read-out: Growth inhibition %
KM12 = assay: NCI-60 one-dose screen; assay type: cell-based; conditions: Homo sapiens; KM12, Colon Cancer panel; single dose 10^−5 M; read-out: Growth inhibition %
786-0 = assay: NCI-60 one-dose screen; assay type: cell-based; conditions: Homo sapiens; 786-0, Renal Cancer panel; single dose 10^−5 M; read-out: Growth inhibition %
HCT-15 = assay: NCI-60 one-dose screen; assay type: cell-based; conditions: Homo sapiens; HCT-15, Colon Cancer panel; single dose 10^−5 M; read-out: Growth inhibition %
SK-MEL-5 = assay: NCI-60 one-dose screen; assay type: cell-based; conditions: Homo sapiens; SK-MEL-5, Melanoma panel; single dose 10^−5 M; read-out: Growth inhibition %
SNB-75 = assay: NCI-60 one-dose screen; assay type: cell-based; conditions: Homo sapiens; SNB-75, CNS Cancer panel; single dose 10^−5 M; read-out: Growth inhibition %
SW-620 = assay: NCI-60 one-dose screen; assay type: cell-based; conditions: Homo sapiens; SW-620, Colon Cancer panel; single dose 10^−5 M; read-out: Growth inhibition %

| Compound | % Inhibition at 10 µM (CCD-966SK) | % Inhibition at 10 µM (HCT-116) | IC50 (HCT-116) | inhibition at 10 µM (SF-268) | IC50 (PDE5A) | inhibition at 10 µM (PDE5A) | inhibition at 10 µM (MDA-MB-435) | inhibition at 10 µM (BT-549) | inhibition at 10 µM (EKVX) | inhibition at 10 µM (OVCAR-8) | inhibition at 10 µM (OVCAR-3) | inhibition at 10 µM (SK-MEL-28) | inhibition at 10 µM (MOLT-4) | inhibition at 10 µM (UO-31) | inhibition at 10 µM (SR) | inhibition at 10 µM (K-562) | inhibition at 10 µM (MDA-MB-231/ATCC) | inhibition at 10 µM (HL-60(TB)) | inhibition at 10 µM (CAKI-1) | inhibition at 10 µM (HS 578T) | further results |
| --- | --- | --- | --- | --- | --- | --- | --- | --- | --- | --- | --- | --- | --- | --- | --- | --- | --- | --- | --- | --- | --- |
| Cc1cccc(CNc2c3ccccc3nc3ccccc23)c1 [Compound 3, Acridin-9-yl-(3-methylbenzyl)-amine] | 54.31 ± 0.98% | 66.71 ± 2.10% | 4.6 ± 0.07 µM | 48% | 6.4 ± 1.89 µM | 59.3 ± 6.18% | 70.9% | 32.7% | 55.5% | 79.7% | 69.2% | 41.2% | 97.7% | 85.3% | 103% | 98.1% | 61.3% | 87.5% | 82.3% | 69.7% | IC50 (CCD-966SK; read-out: IC50 μM): 8.51 ± 0.07 µM; inhibition at 10 µM (DU-145): 66.1%; inhibition at 10 µM (ACHN): 84.2%; inhibition at 10 µM (COLO 205): 116%; inhibition at 10 µM (HT29): 94.8%; inhibition at 10 µM (NCI-H226): 59.4%; inhibition at 10 µM (KM12): 74.4%; inhibition at 10 µM (786-0): 75.8%; inhibition at 10 µM (HCT-15): 84.1%; inhibition at 10 µM (SK-MEL-5): 80.2%; inhibition at 10 µM (SNB-75): 63%; inhibition at 10 µM (SW-620): 82.8% |
| Cc1ccc(CNc2c3ccccc3nc3ccccc23)cc1 [Compound 4, Acridin-9-yl-(4-methylbenzyl)-amine] | 38.07 ± 5.90% | 69.31 ± 2.09% | 3.59 ± 0.27 µM | 48.1% | 4.44 ± 1.82 µM | 74 ± 12.4% | 68.8% | 28.7% | 62.1% | 78.2% | 65.8% | 40.5% | 95.7% | 88% | 101% | 97% | 56.8% | 74.5% | 81.4% | 61.5% | inhibition at 10 µM (DU-145): 66.5%; inhibition at 10 µM (ACHN): 86%; inhibition at 10 µM (COLO 205): 99.7%; inhibition at 10 µM (HT29): 89.7%; inhibition at 10 µM (NCI-H226): 58.5%; inhibition at 10 µM (KM12): 76.5%; inhibition at 10 µM (786-0): 74.6%; inhibition at 10 µM (HCT-15): 84.4%; inhibition at 10 µM (SK-MEL-5): 69.9%; inhibition at 10 µM (SNB-75): 58.3%; inhibition at 10 µM (SW-620): 79.8% |
| COc1ccccc1CNc1c2ccccc2nc2ccccc12 [Compound 5, Acridin-9-yl-(2-methoxybenzyl)-amine] | 6.65 ± 1.18% | 63.71 ± 0.62% | 6.83 ± 0.31 µM | 34.9% | > 10 µM | 45.1 ± 4.54% | 57.4% | 23% | 34.3% | 68.1% | 45.7% | 20% | 79.3% | 66.3% | 90.1% | 89.9% | 42.4% | 55.2% | 54.3% | 38% | inhibition at 10 µM (DU-145): 49.5%; inhibition at 10 µM (ACHN): 77.3%; inhibition at 10 µM (COLO 205): 87.2%; inhibition at 10 µM (HT29): 82.3%; inhibition at 10 µM (NCI-H226): 60.1%; inhibition at 10 µM (KM12): 67.1%; inhibition at 10 µM (786-0): 60.7%; inhibition at 10 µM (HCT-15): 74%; inhibition at 10 µM (SK-MEL-5): 40.8%; inhibition at 10 µM (SNB-75): 36.5%; inhibition at 10 µM (SW-620): 77.9% |
| Fc1ccccc1CNc1c2ccccc2nc2ccccc12 [Compound 8, Acridin-9-yl-(2-fluorobenzyl)-amine] | 42.52 ± 2.0% | 66.44 ± 0.80% | 3.05 ± 0.15 µM | 20.1% | 7.16 ± 2.75 µM | 57.5 ± 6.43% | 43.8% | 15.1% | 38.3% | 68.9% | 35.9% | 15.9% | 82.7% | 72.3% | 82% | 85.8% | 46% | 43.1% | 64.2% | 30.9% | inhibition at 10 µM (DU-145): 38.1%; inhibition at 10 µM (ACHN): 76.9%; inhibition at 10 µM (COLO 205): 84.9%; inhibition at 10 µM (HT29): 76.7%; inhibition at 10 µM (NCI-H226): 43.6%; inhibition at 10 µM (KM12): 57.8%; inhibition at 10 µM (786-0): 60%; inhibition at 10 µM (HCT-15): 70.3%; inhibition at 10 µM (SK-MEL-5): 39.3%; inhibition at 10 µM (SNB-75): 28.3%; inhibition at 10 µM (SW-620): 71.5% |
